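Results reflect a 48-hour exposure of cells in 96-well plates to compound at five concentrations. Here, GI50 denotes the concentration required for 50% inhibition of growth.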 The source made the active and inactive calls. Rule as the data show it: active = GI50 up to about 1.1 µM and inactive = higher. Where a SMILES comes first, the peptide text is derived from it.
Tests used:
Experiment in all cases: growth of human tumour cells (NCI), 48 h
[1] = tested on: SW-620
[2] = tested on: TK-10
[3] = tested on: Malme-3M
[4] = tested on: SK-MEL-5
[5] = tested on: PC-3
[6] = tested on: UO-31
[7] = tested on: A498
[8] = tested on: HL-60
[9] = tested on: MOLT-4
[10] = tested on: HCC 2998
[11] = tested on: HT-29
[12] = tested on: NCI/ADR-RES
[13] = tested on: UACC-257
[14] = tested on: UACC-62
[15] = tested on: K562
[16] = tested on: SF-539
[17] = tested on: MCF7
[18] = tested on: EKVX
[19] = tested on: RPMI-8226
[20] = tested on: RXF 393

| SMILES | GI50 [1] | GI50 [2] | GI50 [3] | GI50 [4] | GI50 [5] | GI50 [6] | GI50 [7] | GI50 [8] | GI50 [9] | GI50 [10] | GI50 [11] | GI50 [12] | GI50 [13] | GI50 [14] | GI50 [15] | GI50 [16] | GI50 [17] | GI50 [18] | GI50 [19] | GI50 [20] |
| --- | --- | --- | --- | --- | --- | --- | --- | --- | --- | --- | --- | --- | --- | --- | --- | --- | --- | --- | --- | --- |
| CC(C)c1ccc2nc3ccc(C(=O)NCCN(C)C)cn3c(=O)c2c1 | 14.7 µM (inactive) | 17.3 µM (inactive) | 3.37 µM (inactive) | 12.4 µM (inactive) | 13.6 µM (inactive) | 14.6 µM (inactive) | 14 µM (inactive) | 16.3 µM (inactive) | 15 µM (inactive) | 14.1 µM (inactive) | 7.74 µM (inactive) | 18.2 µM (inactive) | 12.1 µM (inactive) | 16.6 µM (inactive) | 2.57 µM (inactive) | 14.9 µM (inactive) | 16.3 µM (inactive) | 16.4 µM (inactive) |  |  |
| COC1=C(N2CC2)C(=O)c2nc3n(c2C1=O)CCC3 | 0.242 µM (active) | 3.23 µM (inactive) | 0.305 µM (active) | 1.29 µM (inactive) | 0.695 µM (active) | 0.224 µM (active) | 1.41 µM (inactive) | 0.21 µM (active) | 0.306 µM (active) | 0.679 µM (active) | 0.352 µM (active) | 0.453 µM (active) |  | 1.54 µM (inactive) | 0.271 µM (active) | 2.04 µM (inactive) | 0.532 µM (active) |  | 0.0489 µM (active) | 0.0743 µM (active) |
| NN(CC(=O)O)CC(=O)O | > 100 µM (inactive) | > 100 µM (inactive) | > 100 µM (inactive) | > 100 µM (inactive) | > 100 µM (inactive) | > 100 µM (inactive) | > 100 µM (inactive) | > 100 µM (inactive) | > 100 µM (inactive) | > 100 µM (inactive) | > 100 µM (inactive) | > 100 µM (inactive) | > 100 µM (inactive) | > 100 µM (inactive) | > 100 µM (inactive) | > 100 µM (inactive) | > 100 µM (inactive) | > 100 µM (inactive) | > 100 µM (inactive) |  |
| COc1ccc(OC)c2c(C)ccnc12 | 10.5 µM (inactive) | 81.7 µM (inactive) | 12.2 µM (inactive) | 22.2 µM (inactive) | 20.3 µM (inactive) | 6.78 µM (inactive) | 56.8 µM (inactive) |  |  | > 95.5 µM (inactive) | 17.1 µM (inactive) | 12.9 µM (inactive) | 33.7 µM (inactive) | 25.3 µM (inactive) | > 37.7 µM (inactive) |  | 9.04 µM (inactive) | 14.3 µM (inactive) | 32.9 µM (inactive) | 16.1 µM (inactive) |
| COc1cc(S(=O)(=O)Nc2nc(-c3ccc(N4C(=O)C(CC(=O)O)SC4c4cccs4)cc3)cs2)ccc1Cl (configuration not stated) | 28.9 µM (inactive) | 79.4 µM (inactive) | 22.6 µM (inactive) | > 100 µM (inactive) | 49.1 µM (inactive) | 19.9 µM (inactive) | > 100 µM (inactive) | 31 µM (inactive) | 29 µM (inactive) | 27 µM (inactive) | > 100 µM (inactive) | 29.3 µM (inactive) | 41.9 µM (inactive) | 23.4 µM (inactive) | 39 µM (inactive) | 27.9 µM (inactive) | 25 µM (inactive) |  |  | 15.7 µM (inactive) |
| COc1cc(/C=C2\N=C(c3ccccc3)N(/N=C/c3cc4cc(C)ccc4nc3Cl)C2=O)ccc1O | 39.2 µM (inactive) | 43.2 µM (inactive) |  | 37.2 µM (inactive) | 20 µM (inactive) | 32.5 µM (inactive) | 16.6 µM (inactive) | 24.9 µM (inactive) | 23.4 µM (inactive) | 35.5 µM (inactive) | 33.8 µM (inactive) | 31.6 µM (inactive) | 49.8 µM (inactive) | 37.7 µM (inactive) | 45.8 µM (inactive) | 35.2 µM (inactive) | 25.1 µM (inactive) | 37.2 µM (inactive) | 31.6 µM (inactive) | 34 µM (inactive) |
| CC(=O)O[C@H]1C[C@H]2C(=S)Nc3ccccc3C(=S)N2C1 | > 100 µM (inactive) | > 100 µM (inactive) | > 100 µM (inactive) | > 100 µM (inactive) | > 100 µM (inactive) | > 100 µM (inactive) | > 100 µM (inactive) |  | > 100 µM (inactive) | > 100 µM (inactive) | > 100 µM (inactive) | > 100 µM (inactive) | > 100 µM (inactive) | > 100 µM (inactive) | > 100 µM (inactive) |  | > 100 µM (inactive) | > 100 µM (inactive) | > 100 µM (inactive) | > 100 µM (inactive) |
| C=C1c2[nH]c3ccccc3c2C2C(CC)C1CCN2C (configuration not stated) | > 100 µM (inactive) | 33.3 µM (inactive) | 24.3 µM (inactive) | 61.1 µM (inactive) | 32.8 µM (inactive) | > 100 µM (inactive) | 18.9 µM (inactive) | 49.1 µM (inactive) | 27.2 µM (inactive) | 18.5 µM (inactive) | 27.8 µM (inactive) | 42.2 µM (inactive) | 26 µM (inactive) | 48.4 µM (inactive) |  | 92 µM (inactive) | 56.1 µM (inactive) | 28.4 µM (inactive) | 32.5 µM (inactive) | > 100 µM (inactive) |
| O=C1c2c[nH]nc2C(c2ccccc2)N1c1ccccc1 (configuration not stated) | > 10 µM (inactive) | > 10 µM (inactive) | > 10 µM (inactive) | > 10 µM (inactive) | > 10 µM (inactive) | > 10 µM (inactive) | > 10 µM (inactive) | > 10 µM (inactive) | > 10 µM (inactive) | > 10 µM (inactive) | > 10 µM (inactive) | > 10 µM (inactive) | > 10 µM (inactive) | > 10 µM (inactive) |  | > 10 µM (inactive) | > 10 µM (inactive) | > 10 µM (inactive) | > 10 µM (inactive) | > 10 µM (inactive) |
| COC(=O)C(N)CCCC(N)C(=O)NC(C)C(=O)NC(CCC(=O)NCCNCCNc1c2ccccc2nc2cccc([N+](=O)[O-])c12)C(N)=O (configuration not stated) | 9.86 µM (inactive) | 16.2 µM (inactive) | 11.3 µM (inactive) | 6.92 µM (inactive) | 4.79 µM (inactive) | 21.9 µM (inactive) | 17.4 µM (inactive) |  | 3.5 µM (inactive) | 8.34 µM (inactive) | 13.7 µM (inactive) | 80.5 µM (inactive) | 19.5 µM (inactive) | 8.09 µM (inactive) | 3.13 µM (inactive) | 5.19 µM (inactive) | 3.89 µM (inactive) | 10.2 µM (inactive) | 5.32 µM (inactive) | 8.51 µM (inactive) |
| C[C@]12CC[C@H]3[C@@H](CCC4=CC(=O)CC[C@@]43C)[C@@H]1CC[C@@H]2OC(=O)c1cccc2c(=O)c3ccccc3[nH]c12 | > 100 µM (inactive) | > 100 µM (inactive) | 47.3 µM (inactive) | 37.4 µM (inactive) | 44.4 µM (inactive) | > 100 µM (inactive) | > 100 µM (inactive) |  | 32.1 µM (inactive) | 25.2 µM (inactive) | 43.8 µM (inactive) | 64 µM (inactive) | 99.5 µM (inactive) | 29.4 µM (inactive) | 16.3 µM (inactive) | > 100 µM (inactive) | > 100 µM (inactive) | 7.57 µM (inactive) | 24.3 µM (inactive) | 75.7 µM (inactive) |
| OCCN(CCO)c1ccc2c(c1)Cc1ccccc1-2 | 64.4 µM (inactive) | 22.1 µM (inactive) | 60.7 µM (inactive) | 35.7 µM (inactive) | 42.6 µM (inactive) | 31.9 µM (inactive) | 35.1 µM (inactive) | 41.7 µM (inactive) | 45.8 µM (inactive) | 64.3 µM (inactive) | 18.8 µM (inactive) | 46.8 µM (inactive) | 31 µM (inactive) | 37.3 µM (inactive) | 34 µM (inactive) | 42.9 µM (inactive) | 24.5 µM (inactive) | 43.1 µM (inactive) | 44.8 µM (inactive) |  |
| O=C(OCc1ccccc1[N+](=O)[O-])N1c2ccccc2[C@@]23O[C@]24CCC[C@H]3C#C/C=C\C#C[C@H]14 | 9.16 µM (inactive) | > 100 µM (inactive) | 8.38 µM (inactive) | 12.4 µM (inactive) | 14.8 µM (inactive) | 21 µM (inactive) | > 100 µM (inactive) | 2.5 µM (inactive) | 1.46 µM (inactive) | 41.3 µM (inactive) | 38.1 µM (inactive) | 31.3 µM (inactive) | > 100 µM (inactive) | 22.7 µM (inactive) | 5.83 µM (inactive) | 9.95 µM (inactive) | 0.875 µM (active) | > 100 µM (inactive) |  | > 100 µM (inactive) |
| NC(=O)C1CCCN1C(=O)C(N)Cc1ccccc1 (stereo not drawn) (H-Phe-Pro-NH2; configuration not given here) | > 100 µM (inactive) | > 100 µM (inactive) | > 100 µM (inactive) | > 100 µM (inactive) | > 100 µM (inactive) | > 100 µM (inactive) | 76.7 µM (inactive) | > 100 µM (inactive) | > 100 µM (inactive) | > 100 µM (inactive) | > 100 µM (inactive) | > 100 µM (inactive) | > 10 µM (inactive) | > 100 µM (inactive) | > 100 µM (inactive) |  | > 100 µM (inactive) | > 100 µM (inactive) | > 100 µM (inactive) |  |
| COc1cc2c(cc1-c1coc3cc(O)ccc3c1=O)OCO2 [CUNEATIN] | 32.8 µM (inactive) | 20.9 µM (inactive) |  | 37.2 µM (inactive) | 43 µM (inactive) | 22.1 µM (inactive) | 31 µM (inactive) | > 100 µM (inactive) | > 100 µM (inactive) | 39.7 µM (inactive) | 99.3 µM (inactive) | 21.8 µM (inactive) | 26 µM (inactive) | 23.6 µM (inactive) | > 100 µM (inactive) | 23.4 µM (inactive) | 35.3 µM (inactive) | 34.4 µM (inactive) | 26.5 µM (inactive) |  |

From ChEMBL document CHEMBL1201862, “PubChem BioAssay data set” (2004)
